System: HUVEC
Assay: 125I-labelled fibrinogen binding to HUVEC monolayers, dose dependency
Design: species or system human
Conditions: monolayers of unstimulated HUVEC, 22° C., 45 minutes, 2.5 mM CaCl2
Description: Fibrinogen was iodinated using the Iodogen™ method. Briefly, Iodogen™ was dissolved in dichloromethane for a final concentration of 1 μg/ml and 170 μl of dissolved Iodogen™ that was dried in the bottom of a glass tube. Fibrinogen, prepared in Example 1A, was resuspended in 0.055 M sodium citrate buffer, pH 7.4, for a final concentration of 5 μg/ml. Two hundred μl of dissolved fibrinogen solution was placed into the Iodogen™-coated tube with 700 μCi of carrier-free sodium iodide. The admixture was maintained on ice for 20 minutes with occasional agitation. To stop the iodination reaction, the admixture was removed from the tube and gel filtered on a […]™ G-25 coarse column (100×2.5). Fractions of iodinated fibrinogen were determined by trichloroacetic acid precipitable counts. The labelled fibrinogen produced was radiolabelled to a specific activity of 0.3 μCi/μg of protein. Labelled fibrinogen was used in the binding and inhibition of binding assays described herein at a concentration of 50 μg/ml whereas unlabelled fibrinogen was generally used at a concentration of 500 μg/ml. […]
The resultant admixtures were maintained at 22° C. for 45 minutes to allow for fibrinogen to bind to the plated HUVEC. […] The cells were then solubilized in 10% SDS and the radioactivity associated under the maintenance conditions was quantitated in a gamma counter.

## fibrinogen: fibrinogen isolated from fresh plasma by cold ethanol fractionation, fibronectin-free
  concentration at which 125I-labelled fibrinogen binds saturably: approximately 0.36 μM
